Data taken from a compilation of properties of binary mixtures (doi:10.1016/j.jct.2019.105906).

Experiment: xn = mol fraction of the nth substance listed
Conditions: 100 kPa

CCOC(C)=O + CCCC[n+]1ccn(C)c1.F[P-](F)(F)(F)(F)F
x2 = 0
Conditions	speed of sound [m/s]
303.15 K	1120.8
308.15 K	1098.7
313.15 K	1076.4
318.15 K	1054.1
323.15 K	1032

CCCC[n+]1ccn(C)c1.F[P-](F)(F)(F)(F)F + CCOC(C)=O
speed of sound [m/s]
Conditions	x1 = 0.1012	x1 = 0.1992	x1 = 0.312	x1 = 0.3985	x1 = 0.5056	x1 = 0.5996	x1 = 0.7054	x1 = 0.7963	x1 = 0.9185	x1 = 1
298.15 K	1182.1	1223.3	1269.2	1302	1337.9	–	1391.7	1410.1	1430.5	1443.8
303.15 K	1161.8	1205	1252.8	–	–	–	1378.8	1397.4	–	1431.7
308.15 K	1141.8	1186.7	–	–	–	1339.5	1366	–	1405.6	1419.8
313.15 K	1121.4	–	1220.1	1256	1297.5	1325.9	1353.2	1371.9	–	–
318.15 K	1101.1	–	1203.7	1240.6	–	1312.6	1340.4	–	–	–
323.15 K	1081	1132.1	1187.3	1225.2	–	1299.1	1327.5	1346.6	1368.4	1385.6
